Reference: patent publication US20240368159A1, “HPK1 DEGRADERS, COMPOSITIONS COMPRISING THE HPK1 DEGRADER, AND METHODS OF USING THE SAME” (BIOFRONT LTD, priority 2021, published 2024)

Biological target: T1, HPK1 protein (Homo sapiens, UniProt Q92918)
T1 construct: purchased Signal Chem M23-11G-10
T1 sequence (Q92918 1-346 limits assumed): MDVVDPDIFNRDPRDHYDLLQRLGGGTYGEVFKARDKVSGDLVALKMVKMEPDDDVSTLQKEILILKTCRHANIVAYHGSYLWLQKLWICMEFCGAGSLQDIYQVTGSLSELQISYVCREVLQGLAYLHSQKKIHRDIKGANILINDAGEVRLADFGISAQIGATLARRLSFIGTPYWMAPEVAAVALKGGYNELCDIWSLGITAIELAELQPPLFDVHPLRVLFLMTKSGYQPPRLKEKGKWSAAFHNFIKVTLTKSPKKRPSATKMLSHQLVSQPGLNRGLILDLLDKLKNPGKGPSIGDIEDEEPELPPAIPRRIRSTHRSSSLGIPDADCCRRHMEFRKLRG
Assay: HPK1 enzyme inhibition assay (ADP-Glo)
Format: biochemical
Settings: MBP substrate, ATP, ADP-Glo readout
Method: The compound was dissolved in 100% DMSO at the concentration of 10 mM. The HPK1 protein was purchased from Signal Chem (M23-11G-10). 2.5 μL per well of 2×HPK1 protein was added to assay plate containing the test compound, centrifuged at 1500 rpm for 1 minute, and then incubated at 25° C. for 60 minutes. MBP protein was purchased from Signal Chem (M42-51N) and ATP was purchased from Promega (V9102). The two were added 2.5 μL per well mixture of 2×MBP (0.2 ug/ul) and ATP (20 μM), centrifuged at 1500 rpm for 1 minute, then incubated at 25° C. for 60 minutes. Then added 5 μL of ADP-Glo from Promega (V9102) to the assay plate and depleted the unconsumed ATP for 60 minutes. Then centrifuged at 1500 rpm for 1 minute and incubated at 25° C. for 60 minutes. Finally, 10 μL of the kinase assay reagent from Promega (V9102) was added to the assay plate to convert ADP to ATP, centrifuged at 1500 rpm for 1 minute, incubate at 25° C. for 40 minutes. After 40 minutes incubation, the […] was determined. Based on the results, the IC50 value of the compound was calculated.

| IC50 | Compound |
| --- | --- |
| 100 to 1000 nM | CCc1c[nH]c2ncc(-c3cccc(N4CCN(C(=O)CCCCCCCOc5cccc6c5CN(C5CCC(=O)N(C)C5=O)C6=O)CC4=O)c3)c(Cl)c12 (centres unmarked) [Example 2, 3-(4-((8-(4-(3-(4-chloro-3-ethyl-1H-pyrrolo[2,3-b]pyridin-5-yl)phenyl)-3-oxopiperazin-1-yl)-8-oxooctyl)oxy)-1-oxoisoindolin-2-yl)-1-methylpiperidine-2,6-dione] |
| ≤ 10 nM | CCc1c[nH]c2ncc(-c3cccc(N4CCN(C(=O)COc5cccc6c5CN(C5CCC(=O)NC5=O)C6=O)CC4=O)c3)c(Cl)c12 (centres unmarked) [Example 3] |
| 10 to 100 nM | CCc1c[nH]c2ncc(-c3cccc(N4CCN(C(=O)CCCCCOc5cccc6c5CN(C5CCC(=O)NC5=O)C6=O)CC4=O)c3)c(Cl)c12 (centres unmarked) [Example 5, 3-(4-((6-(4-(3-(4-chloro-3-ethyl-1H-pyrrolo[2,3-b]pyridin-5-yl)phenyl)-3-oxopiperazin-1-yl)-6-oxohexyl)oxy)-1-oxoisoindolin-2-yl)piperidine-2,6-dione] |
| 10 to 100 nM | CCc1c[nH]c2ncc(-c3cccc(N4CCN(C(=O)CCCCCCOc5cccc6c5CN(C5CCC(=O)NC5=O)C6=O)CC4=O)c3)c(Cl)c12 (centres unmarked) [Example 6, 3-(4-((7-(4-(3-(4-chloro-3-ethyl-1H-pyrrolo[2,3-b]pyridin-5-yl)phenyl)-3-oxopiperazin-1-yl)-7-oxoheptyl)oxy)-1-oxoisoindolin-2-yl)piperidine-2,6-dione] |
| 100 to 1000 nM | CCc1c[nH]c2ncc(-c3cccc(N4CCN(C(=O)CCCCCCCCCOc5cccc6c5CN(C5CCC(=O)NC5=O)C6=O)CC4=O)c3)c(Cl)c12 (centres unmarked) [Example 7, 3-(4-((10-(4-(3-(4-chloro-3-ethyl-1H-pyrrolo[2,3-b]pyridin-5-yl)phenyl)-3-oxopiperazin-1-yl)-10-oxodecyl)oxy)-1-oxoisoindolin-2-yl)piperidine-2,6-dione] |
| 10 to 100 nM | CCc1c[nH]c2ncc(-c3cccc(N4CCN(C(=O)CCCCCCCOc5cccc6c5C(=O)N(C5CCC(=O)NC5=O)C6=O)CC4=O)c3)c(Cl)c12 (centres unmarked) [Example 9, 4-((8-(4-(3-(4-chloro-3-ethyl-1H-pyrrolo[2,3-b]pyridin-5-yl)phenyl)-3-oxopiperazin-1-yl)-8-oxooctyl)oxy)-2-(2,6-dioxopiperidin-3-yl)isoindoline-1,3-dione] |
| 100 to 1000 nM | CCc1c[nH]c2ncc(-c3cccc(N4CCN(C(=O)CCCCCCCNc5cccc6c5CN(C5CCC(=O)NC5=O)C6=O)CC4=O)c3)c(Cl)c12 (centres unmarked) [Example 10, 3-(4-((8-(4-(3-(4-chloro-3-ethyl-1H-pyrrolo[2,3-b]pyridin-5-yl)phenyl)-3-oxopiperazin-1-yl)-8-oxooctyl)amino)-1-oxoisoindolin-2-yl)piperidine-2,6-dione] |
| 100 to 1000 nM | CCc1c[nH]c2ncc(-c3cccc(N4CCN(C(=O)CCCCCCCN(C)c5cccc6c5CN(C5CCC(=O)NC5=O)C6=O)CC4=O)c3)c(Cl)c12 (centres unmarked) [Example 11, 3-(4-((8-(4-(3-(4-chloro-3-ethyl-1H-pyrrolo[2,3-b]pyridin-5-yl)phenyl)-3-oxopiperazin-1-yl)-8-oxooctyl)(methyl)amino)-1-oxoisoindolin-2-yl)piperidine-2,6-dione] |
| 10 to 100 nM | CCc1c[nH]c2ncc(-c3cccc(N4CCN(C(=O)CCOCCOCc5cn(-c6cccc7c6CN(C6CCC(=O)NC6=O)C7=O)nn5)CC4=O)c3)c(Cl)c12 (centres unmarked) [Example 13, 3-(4-(4-((2-(3-(4-(3-(4-chloro-3-ethyl-1H-pyrrolo[2,3-b]pyridin-5-yl)phenyl)-3-oxopiperazin-1-yl)-3-oxopropoxy)ethoxy)methyl)-1H-1,2,3-triazol-1-yl)-1-oxoisoindolin-2-yl)piperidine-2,6-dione] |
| 10 to 100 nM | CCc1c[nH]c2ncc(-c3cccc(N4CCN(C(=O)CCCCCN(C)c5cccc6c5CN(C5CCC(=O)NC5=O)C6=O)CC4=O)c3)c(Cl)c12 (centres unmarked) [Example 14, 3-(4-((6-(4-(3-(4-chloro-3-ethyl-1H-pyrrolo[2,3-b]pyridin-5-yl)phenyl)-3-oxopiperazin-1-yl)-6-oxohexyl)(methyl)amino)-1-oxoisoindolin-2-yl)piperidine-2,6-dione] |
| 10 to 100 nM | CCc1c[nH]c2ncc(-c3cccc(N4CCN(C(=O)CCCN(C)c5cccc6c5CN(C5CCC(=O)NC5=O)C6=O)CC4=O)c3)c(Cl)c12 (centres unmarked) [Example 15, 3-(4-((4-(4-(3-(4-chloro-3-ethyl-1H-pyrrolo[2,3-b]pyridin-5-yl)phenyl)-3-oxopiperazin-1-yl)-4-oxobutyl)(methyl)amino)-1-oxoisoindolin-2-yl)piperidine-2,6-dione] |
| 100 to 1000 nM | CCc1c[nH]c2ncc(-c3cccc(N4CCN(C(=O)COC5CCN(c6cccc7c6C(=O)N(C6CCC(=O)NC6=O)C7=O)CC5)CC4=O)c3)c(Cl)c12 (centres unmarked) [Example 17, 4-(4-(2-(4-(3-(4-chloro-3-ethyl-1H-pyrrolo[2,3-b]pyridin-5-yl)phenyl)-3-oxopiperazin-1-yl)-2-oxoethoxy)piperidin-1-yl)-2-(2,6-dioxopiperidin-3-yl)isoindoline-1,3-dione] |
| 10 to 100 nM | CCc1c[nH]c2ncc(-c3cccc(N4CCN(C(=O)COC5CN(c6cccc7c6C(=O)N(C6CCC(=O)NC6=O)C7=O)C5)CC4=O)c3)c(Cl)c12 (centres unmarked) [Example 18, 4-(3-(2-(4-(3-(4-chloro-3-ethyl-1H-pyrrolo[2,3-b]pyridin-5-yl)phenyl)-3-oxopiperazin-1-yl)-2-oxoethoxy)azetidin-1-yl)-2-(2,6-dioxopiperidin-3-yl)isoindoline-1,3-dione] |
| 10 to 100 nM | CCc1c[nH]c2ncc(-c3cccc(N4CCN(C(=O)CCCCCNc5ccc6c(c5)C(=O)N(C5CCC(=O)NC5=O)C6=O)CC4=O)c3)c(Cl)c12 (centres unmarked) [Example 19, 5-((6-(4-(3-(4-chloro-3-ethyl-1H-pyrrolo[2,3-b]pyridin-5-yl)phenyl)-3-oxopiperazin-1-yl)-6-oxohexyl)amino)-2-(2,6-dioxopiperidin-3-yl)isoindoline-1,3-dione] |
| 10 to 100 nM | CCc1c[nH]c2ncc(-c3cccc(N4CCN(C(=O)CCN5CCN(c6cccc7c6C(=O)N(C6CCC(=O)NC6=O)C7=O)CC5)CC4=O)c3)c(Cl)c12 (centres unmarked) [Example 20, 4-(4-(3-(4-(3-(4-chloro-3-ethyl-1H-pyrrolo[2,3-b]pyridin-5-yl)phenyl)-3-oxopiperazin-1-yl)-3-oxopropyl)piperazin-1-yl)-2-(2,6-dioxopiperidin-3-yl)isoindoline-1,3-dione] |
| 10 to 100 nM | CCc1c[nH]c2ncc(-c3cccc(N4CCN(CC(=O)N5CCN(c6ccc7c(c6)C(=O)N(C6CCC(=O)NC6=O)C7=O)CC5)CC4=O)c3)c(Cl)c12 (centres unmarked) [Example 34, 5-(4-(2-(4-(3-(4-chloro-3-ethyl-1H-pyrrolo[2,3-b]pyridin-5-yl)phenyl)-3-oxopiperazin-1-yl)acetyl)piperazin-1-yl)-2-(2,6-dioxopiperidin-3-yl)isoindoline-1,3-dione] |
| > 1000 nM | CCc1c[nH]c2ncc(-c3cccc(N4CCN(CCNC(=O)C5CCN(c6ccc7c(c6)C(=O)N(C6CCC(=O)NC6=O)C7=O)CC5)CC4=O)c3)c(Cl)c12 (centres unmarked) [Example 37] |
| 10 to 100 nM | CCc1c[nH]c2ncc(-c3cccc(N4CCN(CCNc5ccc6c(c5)C(=O)N(C5CCC(=O)NC5=O)C6=O)CC4=O)c3)c(Cl)c12 (centres unmarked) [Example 60, 5-((2-(4-(3-(4-chloro-3-ethyl-1H-pyrrolo[2,3-b]pyridin-5-yl)phenyl)-3-oxopiperazin-1-yl)ethyl)amino)-2-(2,6-dioxopiperidin-3-yl)isoindoline-1,3-dione] |
| 10 to 100 nM | CCc1c[nH]c2ncc(-c3cccc(N4CCN(C(=O)CCCCCCCOc5ccc6c(c5)C(=O)N(C5CCC(=O)NC5=O)C6)CC4=O)c3)c(Cl)c12 (centres unmarked) [Example 65, 3-(6-((8-(4-(3-(4-chloro-3-ethyl-1H-pyrrolo[2,3-b]pyridin-5-yl)phenyl)-3-oxopiperazin-1-yl)-8-oxooctyl)oxy)-1-oxoisoindolin-2-yl)piperidine-2,6-dione] |
| ≤ 10 nM | CCc1c[nH]c2ncc(-c3cccc(N4CCN(C(=O)COc5ccc6c(c5)C(=O)N(C5CCC(=O)NC5=O)C6)CC4=O)c3)c(Cl)c12 (centres unmarked) [Example 66] |
| 10 to 100 nM | CCc1c[nH]c2ncc(-c3cccc(N4CCN(C(=O)CCCOc5ccc6c(c5)C(=O)N(C5CCC(=O)NC5=O)C6)CC4=O)c3)c(Cl)c12 (centres unmarked) [Example 67] |
| 10 to 100 nM | CCc1c[nH]c2ncc(-c3cccc(N4CCN(C(=O)CCCCCOc5ccc6c(c5)C(=O)N(C5CCC(=O)NC5=O)C6)CC4=O)c3)c(Cl)c12 (centres unmarked) [Example 68, 3-(6-((6-(4-(3-(4-chloro-3-ethyl-1H-pyrrolo[2,3-b]pyridin-5-yl)phenyl)-3-oxopiperazin-1-yl)-6-oxohexyl)oxy)-1-oxoisoindolin-2-yl)piperidine-2,6-dione] |

| Compound | IC50 |
| --- | --- |
| CCc1c[nH]c2ncc(-c3cccc(N4CCN(C(=O)CCCOc5cccc6c5CN(C5CCC(=O)NC5=O)C6=O)CC4=O)c3)c(Cl)c12 (centres unmarked) [Example 4, 3-(4-(4-(4-(3-(4-chloro-3-ethyl-1H-pyrrolo[2,3-b]pyridin-5-yl)phenyl)-3-oxopiperazin-1-yl)-4-oxobutoxy)-1-oxoisoindolin-2-yl)piperidine-2,6-dione] | 10 to 100 nM |
